Laboratory results from ChEMBL document CHEMBL3588782, “Synthesis, antiribosomal and antibacterial activity of 4-O-glycopyranosyl paromomycin aminoglycoside antibiotics” (Medchemcomm, 2014).
In brackets after ≈: the same amount, converted by molar mass.

Key:
Staphylococcus aureus [1] = experiment: Antibacterial activity against methicillin-resistant Staphylococcus aureus isolate AG 044 by broth microdilution assay; format: functional
Escherichia coli [2] = experiment: Antibacterial activity against Escherichia coli isolate 001 by broth microdilution assay; format: functional
Escherichia coli [3] = experiment: Antibacterial activity against Escherichia coli isolate 006 by broth microdilution assay; format: functional
[4] = Inhibition of Mycobacterium smegmatis ribosome containing ribosomal RNA A-site G1491A mutant in rabbit reticulocyte lysates assessed as reduction in ribosome-mediated protein synthesis in presence of S-30 extracts by fire fly luciferase synthesis based cell-free translation assay; design: species or system Mycolicibacterium smegmatis
Escherichia coli [5] = experiment: Antibacterial activity against Escherichia coli isolate 003 by broth microdilution assay; format: functional
Escherichia coli [6] = experiment: Antibacterial activity against Escherichia coli isolate 055 by broth microdilution assay; format: functional
Ribosome = experiment: Inhibition of ribosome-mediated protein synthesis in rabbit reticulocyte lysates in presence of S-30 extracts by fire fly luciferase synthesis based cell-free translation assay; design: species or system Oryctolagus cuniculus
[7] = Inhibition of human ribosome containing eukaryotic ribosomal RNA A-site Cyt14 allele in rabbit reticulocyte lysates assessed as reduction in ribosome-mediated protein synthesis in presence of S-30 extracts by fire fly luciferase synthesis based cell-free translation assay
Staphylococcus aureus [8] = experiment: Antibacterial activity against methicillin-resistant Staphylococcus aureus isolate AG 039 by broth microdilution assay; format: functional
[9] = Inhibition of Mycobacterium smegmatis ribosome containing ribosomal RNA A-site G1491C mutant in rabbit reticulocyte lysates assessed as reduction in ribosome-mediated protein synthesis in presence of S-30 extracts by fire fly luciferase synthesis based cell-free translation assay; design: species or system Mycolicibacterium smegmatis
[10] = Inhibition of human ribosome containing eukaryotic ribosomal RNA A-site A1555G mutant in rabbit reticulocyte lysates assessed as reduction in ribosome-mediated protein synthesis in presence of S-30 extracts by fire fly luciferase synthesis based cell-free translation assay
Bacterial 70S ribosome = experiment: Inhibition of Mycobacterium smegmatis ribosome containing wild type ribosomal RNA A-site in rabbit reticulocyte lysates assessed as reduction in ribosome-mediated protein synthesis in presence of S-30 extracts by fire fly luciferase synthesis based cell-free translation assay; design: species or system Mycolicibacterium smegmatis
[11] = Inhibition of Mycobacterium smegmatis ribosome containing ribosomal RNA A-site A1408G mutant in rabbit reticulocyte lysates assessed as reduction in ribosome-mediated protein synthesis in presence of S-30 extracts by fire fly luciferase synthesis based cell-free translation assay; design: species or system Mycolicibacterium smegmatis
80S Ribosome = experiment: Inhibition of human ribosome containing eukaryotic wild type ribosomal RNA A-site in rabbit reticulocyte lysates assessed as reduction in ribosome-mediated protein synthesis in presence of S-30 extracts by fire fly luciferase synthesis based cell-free translation assay
Staphylococcus aureus [12] = experiment: Antibacterial activity against methicillin-resistant Staphylococcus aureus isolate AG 038 by broth microdilution assay; format: functional
Staphylococcus aureus [13] = experiment: Antibacterial activity against methicillin-resistant Staphylococcus aureus isolate AG 042 by broth microdilution assay; format: functional

SMILES | MIC (Staphylococcus aureus [1]) [µg/mL] | MIC (Escherichia coli [2]) [µg/mL] | MIC (Escherichia coli [3]) [µg/mL] | IC50 [4] [µg/mL] | MIC (Escherichia coli [5]) [µg/mL] | MIC (Escherichia coli [6]) [µg/mL] | IC50 (Ribosome) [µg/mL] | IC50 [7] [µg/mL] | MIC (Staphylococcus aureus [8]) [µg/mL] | IC50 [9] [µg/mL] | IC50 [10] [µg/mL] | IC50 (Bacterial 70S ribosome) [nM] | IC50 [11] [µg/mL] | IC50 (80S Ribosome) [nM] | MIC (Staphylococcus aureus [12]) [µg/mL] | MIC (Staphylococcus aureus [13]) [µg/mL]
NC[C@@H]1O[C@H](O[C@H]2[C@@H](O)[C@H](O[C@@H]3[C@@H](O)[C@H](N)C[C@H](N)[C@H]3O[C@H]3O[C@H](CO)[C@@H](O[C@H]4O[C@H](CO)[C@@H](N)[C@H](O)[C@H]4O)[C@H](O)[C@H]3N)O[C@@H]2CO)[C@H](N)[C@@H](O)[C@@H]1O | 4 (≈ 5.15 µM) | 32 (≈ 41.2 µM) | 2 (≈ 2.57 µM) | 6.07 | 16 (≈ 20.6 µM) | 32 (≈ 41.2 µM) | 19.59 | 18.95 | 8 (≈ 10.3 µM) | 32.79 | 3.62 | 154 | 7.06 | 438 | 4 (≈ 5.15 µM) | 8 (≈ 10.3 µM)
NC[C@@H]1O[C@H](O[C@H]2[C@@H](O)[C@H](O[C@@H]3[C@@H](O)[C@H](N)C[C@H](N)[C@H]3O[C@H]3O[C@H](CO)[C@@H](O[C@H]4O[C@H](CO)[C@@H](O)[C@H](O)[C@H]4O)[C@H](O)[C@H]3N)O[C@@H]2CO)[C@H](N)[C@@H](O)[C@@H]1O | 16 (≈ 20.6 µM) | 128 (≈ 165 µM) | 16 (≈ 20.6 µM) | 27.08 | 128 (≈ 165 µM) | 128 (≈ 165 µM) | 30.64 | 46.26 | 32 (≈ 41.1 µM) | 109.01 | 13.98 | 411 | 21.84 | 2390 | 32 (≈ 41.1 µM) | 32 (≈ 41.1 µM)
NC[C@@H]1O[C@H](O[C@H]2[C@@H](O)[C@H](O[C@@H]3[C@@H](O)[C@H](N)C[C@H](N)[C@H]3O[C@H]3O[C@H](CO)[C@@H](O[C@H]4O[C@H](CO)[C@@H](O)[C@H](O)[C@@H]4O)[C@H](O)[C@H]3N)O[C@@H]2CO)[C@H](N)[C@@H](O)[C@@H]1O | 32 (≈ 41.1 µM) | > 128 | 16 (≈ 20.6 µM) | 8.79 | ≥ 128 | > 128 | 36.82 | 51.72 | ≥ 128 | 81.32 | 18.05 | 373 | 5.1 | 2820 | 64 (≈ 82.3 µM) | > 128
NC[C@@H]1O[C@H](O[C@H]2[C@@H](O)[C@H](O[C@@H]3[C@@H](O)[C@H](N)C[C@H](N)[C@H]3O[C@H]3O[C@H](CO)[C@@H](OCCCc4ccccc4)[C@H](O)[C@H]3N)O[C@@H]2CO)[C@H](N)[C@@H](O)[C@@H]1O | 4 (≈ 5.45 µM) | 16 (≈ 21.8 µM) | 8 (≈ 10.9 µM) | 51.26 | 8 (≈ 10.9 µM) | 16 (≈ 21.8 µM) | – | 268.57 | 8 (≈ 10.9 µM) | 210.73 | 105.68 | 273 | 14.52 | 67900 | 2 (≈ 2.73 µM) | 4 (≈ 5.45 µM)
NC[C@@H]1O[C@H](O[C@H]2[C@@H](O)[C@H](O[C@@H]3[C@@H](O)[C@H](N)C[C@H](N)[C@H]3O[C@H]3O[C@@H]4COC(CCc5ccccc5)O[C@H]4[C@H](O)[C@H]3N)O[C@@H]2CO)[C@H](N)[C@@H](O)[C@@H]1O (stereo partly drawn) | 16 (≈ 21.9 µM) | 32 (≈ 43.7 µM) | 16 (≈ 21.9 µM) | 43.01 | 32 (≈ 43.7 µM) | 32 (≈ 43.7 µM) | – | 183.86 | 8 (≈ 10.9 µM) | 124.07 | 126.88 | 137 | 3.81 | 452000 | 4 (≈ 5.47 µM) | 4 (≈ 5.47 µM)
